Data taken from US11312763B2, “Anti-N3pGlu amyloid beta peptide antibodies and uses thereof” (Eli Lilly and Company, priority 2016, dated 2022).

Test system: deposited Aβ
Assay: Prior 4-month study of BACE inhibitor in feed in aged PDAPP mice
Format: in vivo

C[C@@]1(c2cc(-c3cncnc3)c(F)cc2F)CCSC(N)=N1 [LY2811376]
change in the deposited Aβ over the 4-month interval: no change in the deposited Aβ
